Laboratory results from ChEMBL document CHEMBL1914352, “Design, synthesis, docking, and biological evaluation of novel diazide-containing isoxazole- and pyrazole-based histone deacetylase probes” (J Med Chem, 2011).
Active and inactive are the calls of the source. The calls are words filed in the database; no cut-off is given here.

Tests used:
SH-SY5Y [1] = assay: cells; format: functional, cell-based; conditions: Homo sapiens, 24 h
[2] = molecular target: Histone deacetylase (Homo sapiens) (UniProt Q13547+O15379+Q9UBN7+Q92769+Q9UQL6+Q8WUI4+Q9BY41+Q96DB2+P56524+Q9UKV0+Q969S8); assay: Inhibition of HDAC in retinoic acid-differentiated human SH-SY5Y cells assessed as increase in histone H4 acetylation at 1 uM after 24 hrs by Western blot analysis; format: cell-based
Histone deacetylase 1 = Histone deacetylase 1 (Homo sapiens, UniProt Q13547); assay: Inhibition of human recombinant HDAC1 using fluorophore-conjugated substrate Boc-L-Lys(Ac)-AMC after 60 mins
Sequence of Histone deacetylase 1 (Q13547 whole entry): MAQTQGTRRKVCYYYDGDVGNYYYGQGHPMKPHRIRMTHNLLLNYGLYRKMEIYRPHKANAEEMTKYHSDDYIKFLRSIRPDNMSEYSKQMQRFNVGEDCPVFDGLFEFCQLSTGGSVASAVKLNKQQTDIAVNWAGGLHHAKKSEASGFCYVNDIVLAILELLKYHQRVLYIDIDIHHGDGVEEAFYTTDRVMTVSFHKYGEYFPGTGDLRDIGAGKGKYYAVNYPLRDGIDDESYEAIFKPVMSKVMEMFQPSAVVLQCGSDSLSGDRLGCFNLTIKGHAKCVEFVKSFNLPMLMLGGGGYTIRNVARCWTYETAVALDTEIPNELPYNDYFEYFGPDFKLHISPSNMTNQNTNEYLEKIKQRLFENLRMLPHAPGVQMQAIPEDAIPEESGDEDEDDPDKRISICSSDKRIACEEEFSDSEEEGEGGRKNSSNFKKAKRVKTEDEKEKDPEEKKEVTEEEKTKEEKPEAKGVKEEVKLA

Histone deacetylase 8 = molecular target: T1, Histone deacetylase 8 (Homo sapiens, UniProt Q9BY41); assay: Inhibition of human recombinant HDAC8 using Fluor de Lys as substrate
T1 sequence (Q9BY41 whole entry): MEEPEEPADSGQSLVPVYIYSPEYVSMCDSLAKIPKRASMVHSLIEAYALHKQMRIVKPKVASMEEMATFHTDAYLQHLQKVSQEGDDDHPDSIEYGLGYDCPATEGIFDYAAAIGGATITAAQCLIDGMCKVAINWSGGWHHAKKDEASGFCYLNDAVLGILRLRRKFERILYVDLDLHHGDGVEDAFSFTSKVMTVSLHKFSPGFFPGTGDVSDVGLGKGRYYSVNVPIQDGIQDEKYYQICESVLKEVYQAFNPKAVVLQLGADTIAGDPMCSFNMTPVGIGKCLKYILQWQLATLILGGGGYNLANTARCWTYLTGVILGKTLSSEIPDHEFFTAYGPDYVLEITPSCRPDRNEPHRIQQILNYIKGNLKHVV

Histone deacetylase 7 = molecular target: T2, Histone deacetylase 7 (Homo sapiens, UniProt Q8WUI4); assay: Inhibition of human recombinant HDAC7 using fluorophore-conjugated substrate Boc-L-Lys(Ac)-AMC after 60 mins
T2 sequence (Q8WUI4 whole entry): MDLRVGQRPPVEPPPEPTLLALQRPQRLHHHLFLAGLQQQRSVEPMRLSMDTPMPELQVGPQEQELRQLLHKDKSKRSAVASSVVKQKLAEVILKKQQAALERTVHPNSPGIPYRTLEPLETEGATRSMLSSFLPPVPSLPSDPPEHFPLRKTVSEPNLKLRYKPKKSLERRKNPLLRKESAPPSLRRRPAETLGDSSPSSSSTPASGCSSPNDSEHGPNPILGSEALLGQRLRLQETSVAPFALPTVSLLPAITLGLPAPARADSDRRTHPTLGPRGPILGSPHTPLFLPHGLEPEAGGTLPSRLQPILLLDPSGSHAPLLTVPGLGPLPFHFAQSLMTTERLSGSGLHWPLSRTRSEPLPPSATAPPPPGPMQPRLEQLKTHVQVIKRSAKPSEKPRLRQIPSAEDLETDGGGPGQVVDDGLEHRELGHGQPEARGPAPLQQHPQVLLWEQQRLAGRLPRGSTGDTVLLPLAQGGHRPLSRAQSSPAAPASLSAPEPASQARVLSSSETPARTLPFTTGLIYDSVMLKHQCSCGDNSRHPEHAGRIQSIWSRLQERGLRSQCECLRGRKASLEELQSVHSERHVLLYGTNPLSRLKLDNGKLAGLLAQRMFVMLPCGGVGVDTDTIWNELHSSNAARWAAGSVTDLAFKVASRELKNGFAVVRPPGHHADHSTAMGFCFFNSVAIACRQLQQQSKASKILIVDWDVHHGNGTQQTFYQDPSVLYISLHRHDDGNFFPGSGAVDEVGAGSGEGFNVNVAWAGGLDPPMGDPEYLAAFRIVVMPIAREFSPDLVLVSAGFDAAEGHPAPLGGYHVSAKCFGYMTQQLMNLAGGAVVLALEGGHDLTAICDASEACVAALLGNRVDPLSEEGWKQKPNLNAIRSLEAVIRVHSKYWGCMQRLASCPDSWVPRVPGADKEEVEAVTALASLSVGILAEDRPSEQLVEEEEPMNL

HepG2 = assay: cells; format: functional, cell-based; conditions: Homo sapiens, HepG2, 24 h
[3] = molecular target: T3, Protein deacetylase HDAC6 (Homo sapiens, UniProt Q9UBN7); assay: Inhibition of human recombinant HDAC6 using fluorophore-conjugated substrate Boc-L-Lys(Ac)-AMC after 60 mins
T3 sequence (Q9UBN7 whole entry): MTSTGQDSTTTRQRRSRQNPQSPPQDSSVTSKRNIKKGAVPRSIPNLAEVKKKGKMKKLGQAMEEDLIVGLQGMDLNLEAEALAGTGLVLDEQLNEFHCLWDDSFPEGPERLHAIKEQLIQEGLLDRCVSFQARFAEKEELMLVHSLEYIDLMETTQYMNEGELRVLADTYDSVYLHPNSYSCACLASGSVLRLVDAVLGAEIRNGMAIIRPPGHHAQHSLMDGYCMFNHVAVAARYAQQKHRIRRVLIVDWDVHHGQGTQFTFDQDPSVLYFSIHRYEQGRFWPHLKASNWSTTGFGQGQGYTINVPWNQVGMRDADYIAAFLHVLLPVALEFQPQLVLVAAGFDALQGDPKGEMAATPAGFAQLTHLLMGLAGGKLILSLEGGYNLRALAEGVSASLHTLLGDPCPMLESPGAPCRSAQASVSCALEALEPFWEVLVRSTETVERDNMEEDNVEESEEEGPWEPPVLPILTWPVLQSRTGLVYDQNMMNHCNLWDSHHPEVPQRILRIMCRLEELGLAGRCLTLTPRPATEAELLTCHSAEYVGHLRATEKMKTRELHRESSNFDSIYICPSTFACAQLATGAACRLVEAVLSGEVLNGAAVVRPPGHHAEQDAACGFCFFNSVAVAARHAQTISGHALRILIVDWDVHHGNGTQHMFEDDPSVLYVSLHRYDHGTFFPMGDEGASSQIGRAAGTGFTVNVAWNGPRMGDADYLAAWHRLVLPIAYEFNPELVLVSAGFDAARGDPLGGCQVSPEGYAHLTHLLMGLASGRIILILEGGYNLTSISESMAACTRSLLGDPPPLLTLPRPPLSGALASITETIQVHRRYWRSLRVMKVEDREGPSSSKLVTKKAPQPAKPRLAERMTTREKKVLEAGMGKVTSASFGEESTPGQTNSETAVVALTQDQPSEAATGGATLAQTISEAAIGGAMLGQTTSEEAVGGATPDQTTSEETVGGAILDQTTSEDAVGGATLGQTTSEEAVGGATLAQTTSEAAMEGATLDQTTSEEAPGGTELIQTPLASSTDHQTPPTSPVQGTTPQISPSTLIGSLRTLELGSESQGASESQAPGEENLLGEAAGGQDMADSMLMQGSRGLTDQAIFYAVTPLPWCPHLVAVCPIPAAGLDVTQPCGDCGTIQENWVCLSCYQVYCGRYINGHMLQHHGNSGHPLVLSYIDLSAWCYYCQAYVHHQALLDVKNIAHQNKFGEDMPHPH

SH-SY5Y [4] = assay: cells; format: functional, cell-based; conditions: Homo sapiens, 72 h
Histone deacetylase 4 = Histone deacetylase 4 (Homo sapiens, UniProt P56524); assay: Inhibition of human recombinant HDAC4 using fluorophore-conjugated substrate Boc-L-Lys(Ac)-AMC after 60 mins
Sequence of Histone deacetylase 4 (P56524 whole entry): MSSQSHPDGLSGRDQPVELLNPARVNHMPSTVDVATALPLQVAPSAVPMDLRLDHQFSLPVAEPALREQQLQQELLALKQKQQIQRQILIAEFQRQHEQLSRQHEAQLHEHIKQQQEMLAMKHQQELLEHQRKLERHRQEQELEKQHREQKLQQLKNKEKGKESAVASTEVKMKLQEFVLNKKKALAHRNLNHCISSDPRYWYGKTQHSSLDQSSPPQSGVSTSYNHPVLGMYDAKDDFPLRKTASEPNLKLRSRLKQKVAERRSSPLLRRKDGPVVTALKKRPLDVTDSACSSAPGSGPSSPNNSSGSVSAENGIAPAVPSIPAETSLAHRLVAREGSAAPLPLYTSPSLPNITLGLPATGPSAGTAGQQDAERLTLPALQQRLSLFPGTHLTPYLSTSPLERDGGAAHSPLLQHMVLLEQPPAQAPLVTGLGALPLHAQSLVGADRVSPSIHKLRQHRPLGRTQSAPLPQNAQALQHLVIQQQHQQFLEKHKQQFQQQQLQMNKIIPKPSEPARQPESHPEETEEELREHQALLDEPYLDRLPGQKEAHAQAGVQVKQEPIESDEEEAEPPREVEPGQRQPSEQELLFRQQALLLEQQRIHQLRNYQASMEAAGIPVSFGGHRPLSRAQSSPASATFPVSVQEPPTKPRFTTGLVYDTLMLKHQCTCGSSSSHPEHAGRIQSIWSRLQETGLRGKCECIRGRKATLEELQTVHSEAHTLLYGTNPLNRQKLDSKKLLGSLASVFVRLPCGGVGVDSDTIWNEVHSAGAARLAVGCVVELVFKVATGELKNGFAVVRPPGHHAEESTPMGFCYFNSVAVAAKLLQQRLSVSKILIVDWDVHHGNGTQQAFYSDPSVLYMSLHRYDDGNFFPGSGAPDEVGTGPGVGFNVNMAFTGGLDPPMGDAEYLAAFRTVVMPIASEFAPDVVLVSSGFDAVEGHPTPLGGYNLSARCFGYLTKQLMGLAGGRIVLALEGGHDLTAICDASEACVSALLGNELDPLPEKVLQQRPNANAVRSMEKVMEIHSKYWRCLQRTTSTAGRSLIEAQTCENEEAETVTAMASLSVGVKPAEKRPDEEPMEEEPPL

[N-]=[N+]=NCc1cc(N=[N+]=[N-])cc(C(=O)Nc2ccc(-c3cc(C(=O)NCCCCCCC(=O)NO)no3)cc2)c1
EC50 (SH-SY5Y [1]): > 50 µM
inhibition [2]: Active
IC50 (Histone deacetylase 1): 82.2 nM
IC50 (Histone deacetylase 8): 651 nM
IC50 (Histone deacetylase 7): 2.23 µM
EC50 (HepG2): > 50 µM
IC50 [3]: 47 nM
EC50 (SH-SY5Y [4]): 23 µM
IC50 (Histone deacetylase 4): 432 nM

[N-]=[N+]=NCc1cc(Cn2cc(NC(=O)CCCCCCC(=O)NO)cn2)cc(N=[N+]=[N-])c1
EC50 (SH-SY5Y [1]): > 50 µM
inhibition [2]: Active
IC50 (Histone deacetylase 1): 99.1 nM
IC50 (Histone deacetylase 8): 17 nM
IC50 (Histone deacetylase 7): 4.51 µM
EC50 (HepG2): > 50 µM
IC50 [3]: 274 nM
EC50 (SH-SY5Y [4]): 20.8 µM
IC50 (Histone deacetylase 4): 379 nM
